# Biological target: Beta-3 Adrenergic Receptor (Homo sapiens (Human), UniProt P13945)
# Test: Homogeneous Time-Resolved Fluorescence (HTRF) cAMP antagonist assay, IC50 determination
# Assay type: cell-based
# Settings: CHO-K1 cells stably expressing recombinant receptor, isoproterenol at EC90
# How it was run: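 In this functional readout, recombinant CHO-K1 cells received compound, then isoproterenol at its EC90. After 1 h at room temperature, cAMP levels were determined by HTRF using an on-plate standard curve, and IC50 values were fitted.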
# Beta-3 Adrenergic Receptor, sequence (P13945 whole entry, species assumed): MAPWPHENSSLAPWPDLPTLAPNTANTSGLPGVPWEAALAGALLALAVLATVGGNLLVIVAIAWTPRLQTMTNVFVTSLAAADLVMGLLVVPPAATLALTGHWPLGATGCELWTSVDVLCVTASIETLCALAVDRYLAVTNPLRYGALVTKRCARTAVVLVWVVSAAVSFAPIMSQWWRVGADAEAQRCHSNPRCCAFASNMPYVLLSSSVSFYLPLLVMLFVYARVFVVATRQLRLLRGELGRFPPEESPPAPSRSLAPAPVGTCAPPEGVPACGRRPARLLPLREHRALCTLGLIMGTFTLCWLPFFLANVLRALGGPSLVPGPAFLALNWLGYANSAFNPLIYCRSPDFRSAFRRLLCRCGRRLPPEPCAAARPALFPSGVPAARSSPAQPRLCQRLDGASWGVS
row,SMILES,IC50 [nM]
1,"CN1CCOc2ncc(S(=O)(=O)N3CCC4(CC3)C[C@@H](NC[C@H](O)COc3cccc(S(=O)(=O)NCC(F)F)c3)CO4)cc21 [Compound 461, N-(2,2-difluoroethyl)-3-((S)-2-hydroxy-3-((R)-8-(1-methyl-2,3-dihydro-1H-pyrido[2,3-b][1,4]oxazin-7-ylsulfonyl)-1-oxa-8-azaspiro[4.5]decan-3-ylamino)propoxy)benzenesulfonamide]",31.9
2,"CNS(=O)(=O)c1cccc(OC[C@@H](O)CN[C@H]2COC3(CCN(S(=O)(=O)c4cnc5c(c4)N(CCOCc4ccccc4)CCO5)CC3)C2)c1 [Compound 462, 3-((S)-3-((R)-8-(1-(2-(benzyloxy)ethyl)-2,3-dihydro-1H-pyrido[2,3-b][1,4]oxazin-7-ylsulfonyl)-1-oxa-8-azaspiro[4.5]decan-3-ylamino)-2-hydroxypropoxy)-N-methylbenzenesulfonamide]",107
3,"CNS(=O)(=O)c1cccc(OC[C@@H](O)CN[C@@H]2COC3(CCN(S(=O)(=O)c4ccc(OC)c(-c5ccc(C6(N)CC6)cc5)c4)CC3)C2)c1 [Compound 463, 3-((S)-3-((S)-8-(4′-(1-aminocyclopropyl)-6-methoxybiphenyl-3-ylsulfonyl)-1-oxa-8-azaspiro[4.5]decan-3-ylamino)-2-hydroxypropoxy)-N-methylbenzenesulfonamide]",24.3
4,"CNS(=O)(=O)c1cccc(OC[C@@H](O)CN[C@H]2COC3(CCN(S(=O)(=O)c4ccc(OC)c(-c5ccc(C6(N)CC6)cc5)c4)CC3)C2)c1 [Compound 464, 3-((S)-3-((R)-8-(4′-(1-aminocyclopropyl)-6-methoxybiphenyl-3-ylsulfonyl)-1-oxa-8-azaspiro[4.5]decan-3-ylamino)-2-hydroxypropoxy)-N-methylbenzenesulfonamide]",13.9
5,"CNS(=O)(=O)c1cccc(OC[C@@H](O)CN[C@H]2COC3(CCN(S(=O)(=O)c4cnc5c(c4)N(CCO)CCO5)CC3)C2)c1 [Compound 465, 3-((S)-2-hydroxy-3-((R)-8-(1-(2-hydroxyethyl)-2,3-dihydro-1H-pyrido[2,3-b][1,4]oxazin-7-ylsulfonyl)-1-oxa-8-azaspiro[4.5]decan-3-ylamino)propoxy)-N-methylbenzenesulfonamide]",26.3
6,"CNS(=O)(=O)c1cccc(OC[C@@H](O)CN[C@H]2COC3(CCN(S(=O)(=O)c4cc5c(nc4C)OCCN5C)CC3)C2)c1 [Compound 466, 3-((S)-3-((R)-8-(1,6-dimethyl-2,3-dihydro-1H-pyrido[2,3-b][1,4]oxazin-7-ylsulfonyl)-1-oxa-8-azaspiro[4.5]decan-3-ylamino)-2-hydroxypropoxy)-N-methylbenzenesulfonamide]",101
7,"CNS(=O)(=O)c1cccc(OC[C@@H](O)CN[C@H]2COC3(CCN(S(=O)(=O)c4cnc5c(c4C)N(C)CCO5)CC3)C2)c1 [Compound 467, 3-((S)-3-((R)-8-(1,8-dimethyl-2,3-dihydro-1H-pyrido[2,3-b][1,4]oxazin-7-ylsulfonyl)-1-oxa-8-azaspiro[4.5]decan-3-ylamino)-2-hydroxypropoxy)-N-methylbenzenesulfonamide]",33.4
8,"CNS(=O)(=O)c1cccc(OC[C@@H](O)CN[C@H]2COC3(CCN(S(=O)(=O)c4cnc5c(c4)N(CCOC)CCO5)CC3)C2)c1 [Compound 471, 3-((S)-2-hydroxy-3-((R)-8-(1-(2-methoxyethyl)-2,3-dihydro-1H-pyrido[2,3-b][1,4]oxazin-7-ylsulfonyl)-1-oxa-8-azaspiro[4.5]decan-3-ylamino)propoxy)-N-methylbenzenesulfonamide]",69
9,"CNS(=O)(=O)c1cccc(OC[C@@H](O)CN[C@H]2COC3(CCN(S(=O)(=O)c4cnc5c(c4)ncn5C)CC3)C2)c1 [Compound 475, 3-((S)-2-hydroxy-3-((R)-8-(3-methyl-3H-imidazo[4,5-b]pyridin-6-ylsulfonyl)-1-oxa-8-azaspiro[4.5]decan-3-ylamino)propoxy)-N-methylbenzenesulfonamide]",33.2
10,"CNS(=O)(=O)c1cccc(OC[C@@H](O)CN[C@H]2COC3(CCN(S(=O)(=O)c4cc5c(nc4OC)OCCN5C)CC3)C2)c1 [Compound 476, 3-((S)-2-hydroxy-3-((R)-8-(6-methoxy-1-methyl-2,3-dihydro-1H-pyrido[2,3-b][1,4]oxazin-7-ylsulfonyl)-1-oxa-8-azaspiro[4.5]decan-3-ylamino)propoxy)-N-methylbenzenesulfonamide]",38.9
11,"CNS(=O)(=O)c1cccc(OC[C@@H](O)CN[C@H]2COC3(CCN(S(=O)(=O)c4cnc5[nH]c(=O)[nH]c5c4)CC3)C2)c1 [Compound 477, 3-((S)-2-hydroxy-3-((R)-8-(2-oxo-2,3-dihydro-1H-imidazo[4,5-b]pyridin-6-ylsulfonyl)-1-oxa-8-azaspiro[4.5]decan-3-ylamino)propoxy)-N-methylbenzenesulfonamide]",52.3
12,"CNS(=O)(=O)c1cccc(OC[C@@H](O)CN[C@H]2COC3(CCN(S(=O)(=O)c4cnc5c(c4)C(=O)NC5)CC3)C2)c1 [Compound 478, 3-((S)-2-hydroxy-3-((R)-8-(5-oxo-6,7-dihydro-5H-pyrrolo[3,4-b]pyridin-3-ylsulfonyl)-1-oxa-8-azaspiro[4.5]decan-3-ylamino)propoxy)-N-methylbenzenesulfonamide]",204
13,"CNS(=O)(=O)c1cccc(OC[C@@H](O)CN[C@H]2COC3(CCN(S(=O)(=O)c4cnc5c(c4)CCCC5)CC3)C2)c1 [Compound 479, 3-((S)-2-hydroxy-3-((R)-8-(5,6,7,8-tetrahydroquinolin-3-ylsulfonyl)-1-oxa-8-azaspiro[4.5]decan-3-ylamino)propoxy)-N-methylbenzenesulfonamide]",32.1
14,"CNS(=O)(=O)c1cccc(OC[C@@H](O)CN[C@H]2COC3(CCN(S(=O)(=O)c4cnc5c(c4)OCCO5)CC3)C2)c1 [Compound 480, 3-((S)-3-((R)-8-(2,3-dihydro-[1,4]dioxino[2,3-b]pyridin-7-ylsulfonyl)-1-oxa-8-azaspiro[4.5]decan-3-ylamino)-2-hydroxypropoxy)-N-methylbenzenesulfonamide]",75.3
15,"CNS(=O)(=O)c1cccc(OC[C@@H](O)CN[C@H]2COC3(CCN(S(=O)(=O)c4cnc5c(c4)CNC5)CC3)C2)c1 [Compound 482, 3-((S)-3-((R)-8-(6,7-dihydro-5H-pyrrolo[3,4-b]pyridin-3-ylsulfonyl)-1-oxa-8-azaspiro[4.5]decan-3-ylamino)-2-hydroxypropoxy)-N-methylbenzenesulfonamide]",1510

# The next lines start with the values.
row,IC50 [nM],SMILES
1,31.1,"CNS(=O)(=O)c1cccc(OC[C@@H](O)CN[C@H]2COC3(CCN(S(=O)(=O)c4cnc5c(c4)N(C)C[C@@H](C)O5)CC3)C2)c1 [Compound 468, 3-((S)-3-((R)-8-((R)-1,3-dimethyl-2,3-dihydro-1H-pyrido[2,3-b][1,4]oxazin-7-ylsulfonyl)-1-oxa-8-azaspiro[4.5]decan-3-ylamino)-2-hydroxypropoxy)-N-methylbenzenesulfonamide]"
2,31.3,"CNS(=O)(=O)c1cccc(OC[C@@H](O)CN[C@H]2COC3(CCN(S(=O)(=O)c4cnc5c(c4)N(C(C)C)CCO5)CC3)C2)c1 [Compound 469, 3-((S)-2-hydroxy-3-((R)-8-(1-isopropyl-2,3-dihydro-1H-pyrido[2,3-b][1,4]oxazin-7-ylsulfonyl)-1-oxa-8-azaspiro[4.5]decan-3-ylamino)propoxy)-N-methylbenzenesulfonamide]"
3,35.8,"CCCN1CCOc2ncc(S(=O)(=O)N3CCC4(CC3)C[C@@H](NC[C@H](O)COc3cccc(S(=O)(=O)NC)c3)CO4)cc21 [Compound 470, 3-((S)-2-hydroxy-3-((R)-8-(1-propyl-2,3-dihydro-1H-pyrido[2,3-b][1,4]oxazin-7-ylsulfonyl)-1-oxa-8-azaspiro[4.5]decan-3-ylamino)propoxy)-N-methylbenzenesulfonamide]"
4,35.4,"CNS(=O)(=O)c1cccc(OC[C@@H](O)CN[C@H]2COC3(CCN(S(=O)(=O)c4cnc5c(c4)N(C)C[C@H](C)O5)CC3)C2)c1 [Compound 472, 3-((S)-3-((R)-8-((S)-1,3-dimethyl-2,3-dihydro-1H-pyrido[2,3-b][1,4]oxazin-7-ylsulfonyl)-1-oxa-8-azaspiro[4.5]decan-3-ylamino)-2-hydroxypropoxy)-N-methylbenzenesulfonamide]"
5,59.2,"CNS(=O)(=O)c1cccc(OC[C@@H](O)CN[C@H]2COC3(CCN(S(=O)(=O)c4cnc5c(c4)N(C)CC(C)(C)O5)CC3)C2)c1 [Compound 473, 3-((S)-2-hydroxy-3-((R)-8-(1,3,3-trimethyl-2,3-dihydro-1H-pyrido[2,3-b][1,4]oxazin-7-ylsulfonyl)-1-oxa-8-azaspiro[4.5]decan-3-ylamino)propoxy)-N-methylbenzenesulfonamide]"
6,44.2,"CNS(=O)(=O)c1cccc(OC[C@@H](O)CN[C@H]2COC3(CCN(S(=O)(=O)c4cnc5c(c4)N(C)CC4(CC4)O5)CC3)C2)c1 [Compound 474, 3-((S)-2-hydroxy-3-((R)-8-(1′-methyl-1′,2′-dihydrospiro[cyclopropane-1,3′-pyrido[2,3-b][1,4]oxazine]-7′-ylsulfonyl)-1-oxa-8-azaspiro[4.5]decan-3-ylamino)propoxy)-N-methylbenzenesulfonamide]"
7,31.1,"CNS(=O)(=O)c1cccc(OC[C@@H](O)CN[C@H]2COC3(CCN(S(=O)(=O)c4cnc5c(c4)OCCN5C)CC3)C2)c1 [Compound 481, 3-((S)-2-hydroxy-3-((R)-8-(4-methyl-3,4-dihydro-2H-pyrido[3,2-b][1,4]oxazin-7-ylsulfonyl)-1-oxa-8-azaspiro[4.5]decan-3-ylamino)propoxy)-N-methylbenzenesulfonamide]"
8,41.8,"CNS(=O)(=O)c1cccc(OC[C@@H](O)CN[C@H]2COC3(CCN(S(=O)(=O)c4cnc5c(c4)CCCO5)CC3)C2)c1 [Compound 483, 3-((S)-3-((R)-8-(3,4-dihydro-2H-pyrano[2,3-b]pyridin-6-ylsulfonyl)-1-oxa-8-azaspiro[4.5]decan-3-ylamino)-2-hydroxypropoxy)-N-methylbenzenesulfonamide]"

# From patent publication US11987588B2, “Modulators of the beta-3 adrenergic receptor useful for the treatment or prevention of heart failure and disorders related thereto” (Arena Pharmaceuticals, Inc., priority 2017, dated 2024)
